What was measured:
androgen receptor = experiment: PSA expression in DHT-treated prostate cancer cells (Western blot); assay type: cell-based; details: LNCaP cells, DHT 20 nM plus AR Pep1 1, 10, 100 μM, 24 hours, versus DHT only; FIG. 1
Experimental: 1. Prostate cancer cells (LNCaP) were prepared at a density of 5×10^6 cells per well, treated with DHT at a concentration of 20 nM and with AR Pep1 at a concentration of 1, 10, 100 μM respectively, then cultured in an incubator at 37° C. in the presence of 5% CO2 for 24 hours. As a control group, one with no treatment at all and one treated only with DHT were used. The cancer cells were washed with PBS three times, and lysed with 1% NP40 lysis buffer (1% Nonidet P40, 0.1 M NaCl, 0.05 M tris (pH 8.0), 5 mM EDTA) containing […] PMSP (phenylmethylsulfonyl fluoride), 1 μg/ml pepstatin A, 10 μg/ml leupeptin, 1 μg/ml aprotinin and 1 mM Na3VO4.
2. The cell lysate was quantified using Bradford assay to prepare a protein sample for electrophoresis.
Immunoprecipitates were subjected to 12.5% polyacrylamide gel electrophoresis, then the unfolded protein was transferred onto a nitrocellulose membrane, treated with a blocking solution (Tris-buffered saline (TBS) containing 0.05% Tween 20 and 3% bovine serum albumin) for about one hour at room temperature. Then, the membrane was suspended in TBS buffer containing Anti-PSA polyclonal antibody (Santa cruz, CA, USA) for two hours and washed with TBS buffer containing 0.05% Tween 20. […]

AR and POL II = biological target: T1, AR and POL II (Homo sapiens, UniProt P10275); experiment: Physical binding of AR and POL II in DHT-treated human keratinocytes (in situ PLA); assay type: cell-based; details: HaCaT cells, DHT 20 nM plus AR Pep1 20 nM, 1, 10, 100 μM, 24 hours, versus DHT only; FIG. 2
T1 construct: Human keratinocytes (HaCaT) were prepared at a density of 4.5×10^4 cells per well, treated with DHT; endogenous in cells; host or cells: HaCaT human keratinocytes
T1 sequence (P10275 1-920): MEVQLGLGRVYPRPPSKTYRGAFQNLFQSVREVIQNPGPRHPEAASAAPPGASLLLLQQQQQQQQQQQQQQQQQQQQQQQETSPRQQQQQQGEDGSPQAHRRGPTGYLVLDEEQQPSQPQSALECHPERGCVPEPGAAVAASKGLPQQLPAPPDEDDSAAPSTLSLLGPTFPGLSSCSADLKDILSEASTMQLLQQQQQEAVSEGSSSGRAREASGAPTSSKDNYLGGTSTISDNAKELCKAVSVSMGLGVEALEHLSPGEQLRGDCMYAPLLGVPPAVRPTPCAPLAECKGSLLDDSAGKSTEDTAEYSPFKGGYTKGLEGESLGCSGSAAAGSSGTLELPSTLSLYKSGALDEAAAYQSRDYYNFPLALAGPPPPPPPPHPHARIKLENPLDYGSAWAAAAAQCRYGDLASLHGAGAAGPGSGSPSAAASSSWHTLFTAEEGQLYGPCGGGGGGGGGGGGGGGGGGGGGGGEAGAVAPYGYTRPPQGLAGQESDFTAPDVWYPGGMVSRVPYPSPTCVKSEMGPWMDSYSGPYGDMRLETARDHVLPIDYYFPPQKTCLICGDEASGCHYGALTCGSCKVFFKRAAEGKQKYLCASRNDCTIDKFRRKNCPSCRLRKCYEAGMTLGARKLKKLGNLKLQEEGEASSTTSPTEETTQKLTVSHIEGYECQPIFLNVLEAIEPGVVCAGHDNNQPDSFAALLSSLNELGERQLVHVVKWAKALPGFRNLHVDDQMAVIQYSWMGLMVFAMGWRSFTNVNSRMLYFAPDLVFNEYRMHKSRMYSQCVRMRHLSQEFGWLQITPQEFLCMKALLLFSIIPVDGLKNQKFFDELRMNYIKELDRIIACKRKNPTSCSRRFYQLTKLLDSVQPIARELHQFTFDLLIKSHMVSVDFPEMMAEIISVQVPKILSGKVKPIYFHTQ
Experimental: 1. Human keratinocytes (HaCaT) were prepared at a density of 4.5×10^4 cells per well, treated with DHT at a concentration of 20 nM and with AR Pep1 at a concentration of 20 nM, 1, 10, 100 μM respectively, then cultured in an incubator at 37° C. in the presence of 5% CO2 for 24 hours. As a control, one with no treatment at all and one treated only with DHT were used. The cells in each well were washed with PBS, fixed in 2% formaldehyde for five minutes, and treated with 0.1% TritonX-100 for five minutes to enhance antibody permeability into cells. Then, Anti-AR polyclonal antibody (Santa cruz, USA) and Anti-POL II monoclonal antibody (Santa cruz, USA) were added, PLA probe was applied using In situ PLA kit (Sigma-Aldrich), and steps of hybridization, ligation, amplification, and mounting were performed.
2. Luminescence signals (PLA signals) detected from each cell were measured with a confocal laser microscope (Olympus fluoview FW1000; Olympus, Japan), physical interaction between the AR and POL II antibodies was quantified.

Asp-Lys-Phe (DKF; Peptide 1) [AR Pep1]
expression of prostate-specific antigen (PSA) (androgen receptor): expression of the PSA was reduced | physical interaction between the AR and POL II (PLA signals) (AR and POL II): the increase in that interaction was reduced
